According to patent US12286443B2, “Bycyclic JAK inhibitors and uses thereof” (Insilico Medicine IP Limited, priority 2019, dated 2025):

Key:
Hut-78 cells = assay: Inhibition in Hut-78 cells (IL-2 stimulated, HTRF); format: cell-based; conditions: Homo sapiens, HuT78; compound 2 hours at 37° C., then IL-2 100 ng/mL 10 min; HTRF; read-out: Hut-78 cells IC50
Description: Exemplary compounds were assayed to determine potency in inhibiting Hut-78 cells by determining IC50 values.
Hut-78 cells were cultures in IMDM+20% FBS medium. Cells were maintained in log phase before the assay. Cell pellets were collected and resuspended in serum-free and phenol-free RPMI 1640 medium. 40,000 cells/well (10 μL) were seeded in each well of a 384-well plate and incubated with and without compound for 2 hours at 37° C. and 5% C02. IL-2 was added (2 μL, final concentration 100 ng/mL) and the mixture was incubated for 10 min. Cells were lysed by adding 4 μL labeled antibodies and the mixture was incubated overnight. The plate was read using the HTRF protocol on an Envision plate reader. The data was analyzed using XL-fit software (Supplier: ID business solutions Ltd.; Software version: XL fit 5.0). Inhibition %=(Max−Sample value)/(Max−Min)*100.
In the table, “A” indicates an IC50 of less than 0.5 μM, “B” indicates an IC50 range from 0.5 μM to 1 μM; and “C” indicates an IC50 range from 1 μM to 10 μM. Also, “na” indicates data is not available.

JAK3 = biological target: T1, JAK3 (Homo sapiens, UniProt P52333); assay: Inhibition of JAK3 kinase, LANCE Ultra TR-FRET assay; format: biochemical; conditions: 2x ATP 8 μM, 15 min pre-incubation, 90 min reaction, 23° C.
T1 construct: purchased Invitrogen PV4080
T1 sequence (P52333 1-1124): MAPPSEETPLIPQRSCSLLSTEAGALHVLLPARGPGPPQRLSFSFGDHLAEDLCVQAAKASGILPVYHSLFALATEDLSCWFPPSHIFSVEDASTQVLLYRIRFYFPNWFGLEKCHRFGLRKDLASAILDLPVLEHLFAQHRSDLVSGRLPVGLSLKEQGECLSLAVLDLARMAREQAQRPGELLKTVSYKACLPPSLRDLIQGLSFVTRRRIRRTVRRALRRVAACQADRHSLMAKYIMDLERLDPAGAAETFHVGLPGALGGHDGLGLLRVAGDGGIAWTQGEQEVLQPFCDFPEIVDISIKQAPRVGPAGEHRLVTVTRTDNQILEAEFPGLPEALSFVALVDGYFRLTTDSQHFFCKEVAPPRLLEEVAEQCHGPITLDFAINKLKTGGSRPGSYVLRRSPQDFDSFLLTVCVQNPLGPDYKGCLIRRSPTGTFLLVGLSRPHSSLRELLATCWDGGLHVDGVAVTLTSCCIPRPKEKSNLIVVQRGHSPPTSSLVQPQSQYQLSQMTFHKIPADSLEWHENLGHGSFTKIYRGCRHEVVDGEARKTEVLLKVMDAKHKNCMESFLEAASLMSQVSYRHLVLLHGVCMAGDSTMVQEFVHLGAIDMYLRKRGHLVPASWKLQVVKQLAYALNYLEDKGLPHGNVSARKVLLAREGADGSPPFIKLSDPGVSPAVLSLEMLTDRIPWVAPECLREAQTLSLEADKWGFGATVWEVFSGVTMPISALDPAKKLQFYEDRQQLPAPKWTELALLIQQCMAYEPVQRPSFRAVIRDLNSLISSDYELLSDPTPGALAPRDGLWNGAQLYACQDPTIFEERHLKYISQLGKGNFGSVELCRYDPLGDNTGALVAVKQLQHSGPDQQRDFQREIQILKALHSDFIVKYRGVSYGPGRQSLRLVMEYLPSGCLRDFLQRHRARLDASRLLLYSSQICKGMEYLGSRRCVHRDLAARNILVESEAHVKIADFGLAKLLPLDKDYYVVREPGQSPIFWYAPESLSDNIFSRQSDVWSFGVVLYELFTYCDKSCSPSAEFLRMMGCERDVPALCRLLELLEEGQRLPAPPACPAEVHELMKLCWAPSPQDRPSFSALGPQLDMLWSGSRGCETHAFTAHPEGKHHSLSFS
Method in brief: (§1)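 TR-FRET phosphorylation of 50 nM ULight-JAK-1 peptide read via Eu-PT66 antibody after 90 min reaction at 23 °C in HEPES pH 7.5 buffer. Enzyme levels: JAK1 2 nM, […], TYK2 4 nM; ATP as 2× stock 76/24/8/30 μM. 15-min compound preincubation; 4-parameter IC50.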

JAK1 = biological target: T2, JAK1 (Homo sapiens, UniProt P23458); assay: Inhibition of JAK1 kinase, LANCE Ultra TR-FRET assay; format: biochemical; conditions: 2 nM JAK1, 2x ATP 76 μM, 15 min pre-incubation, 90 min reaction, 23° C.
T2 construct: purchased Invitrogen PV4775
T2 sequence (P23458 whole entry): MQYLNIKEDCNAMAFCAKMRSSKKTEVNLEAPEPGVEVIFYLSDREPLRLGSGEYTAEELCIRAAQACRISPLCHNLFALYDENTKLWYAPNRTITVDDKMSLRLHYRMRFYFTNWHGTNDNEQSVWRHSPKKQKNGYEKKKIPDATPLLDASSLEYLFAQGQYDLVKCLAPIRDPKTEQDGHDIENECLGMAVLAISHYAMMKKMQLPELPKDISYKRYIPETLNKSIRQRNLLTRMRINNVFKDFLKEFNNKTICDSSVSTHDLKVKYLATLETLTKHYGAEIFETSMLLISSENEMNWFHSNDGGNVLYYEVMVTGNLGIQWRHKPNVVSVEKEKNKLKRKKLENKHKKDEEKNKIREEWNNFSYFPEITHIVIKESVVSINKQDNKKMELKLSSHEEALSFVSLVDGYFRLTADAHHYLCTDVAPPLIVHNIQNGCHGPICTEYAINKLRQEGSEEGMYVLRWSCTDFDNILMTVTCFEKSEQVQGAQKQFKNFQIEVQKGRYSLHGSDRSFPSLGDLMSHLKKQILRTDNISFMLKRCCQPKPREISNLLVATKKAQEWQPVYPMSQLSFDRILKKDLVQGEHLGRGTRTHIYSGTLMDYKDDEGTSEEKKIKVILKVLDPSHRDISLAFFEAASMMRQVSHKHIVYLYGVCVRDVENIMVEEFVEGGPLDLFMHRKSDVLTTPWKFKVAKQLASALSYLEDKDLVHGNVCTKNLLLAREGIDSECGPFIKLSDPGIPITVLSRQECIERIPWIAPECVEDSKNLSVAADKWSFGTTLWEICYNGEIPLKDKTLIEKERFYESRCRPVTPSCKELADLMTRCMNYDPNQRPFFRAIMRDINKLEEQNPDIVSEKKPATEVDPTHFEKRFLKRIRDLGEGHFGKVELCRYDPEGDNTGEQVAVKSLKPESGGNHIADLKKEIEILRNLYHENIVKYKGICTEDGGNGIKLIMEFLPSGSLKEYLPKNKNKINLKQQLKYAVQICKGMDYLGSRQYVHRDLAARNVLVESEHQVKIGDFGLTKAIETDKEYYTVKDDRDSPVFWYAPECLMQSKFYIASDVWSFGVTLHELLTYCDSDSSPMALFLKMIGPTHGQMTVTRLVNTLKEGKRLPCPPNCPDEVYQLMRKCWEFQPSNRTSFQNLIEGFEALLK
Method in brief: as §1

JAK2 = biological target: T3, JAK2 (Homo sapiens, UniProt O60674); assay: Inhibition of JAK2 kinase, LANCE Ultra TR-FRET assay; format: biochemical; conditions: 2x ATP 24 μM, 15 min pre-incubation, 90 min reaction, 23° C.
T3 construct: purchased Invitrogen PV4210
T3 sequence (O60674 whole entry): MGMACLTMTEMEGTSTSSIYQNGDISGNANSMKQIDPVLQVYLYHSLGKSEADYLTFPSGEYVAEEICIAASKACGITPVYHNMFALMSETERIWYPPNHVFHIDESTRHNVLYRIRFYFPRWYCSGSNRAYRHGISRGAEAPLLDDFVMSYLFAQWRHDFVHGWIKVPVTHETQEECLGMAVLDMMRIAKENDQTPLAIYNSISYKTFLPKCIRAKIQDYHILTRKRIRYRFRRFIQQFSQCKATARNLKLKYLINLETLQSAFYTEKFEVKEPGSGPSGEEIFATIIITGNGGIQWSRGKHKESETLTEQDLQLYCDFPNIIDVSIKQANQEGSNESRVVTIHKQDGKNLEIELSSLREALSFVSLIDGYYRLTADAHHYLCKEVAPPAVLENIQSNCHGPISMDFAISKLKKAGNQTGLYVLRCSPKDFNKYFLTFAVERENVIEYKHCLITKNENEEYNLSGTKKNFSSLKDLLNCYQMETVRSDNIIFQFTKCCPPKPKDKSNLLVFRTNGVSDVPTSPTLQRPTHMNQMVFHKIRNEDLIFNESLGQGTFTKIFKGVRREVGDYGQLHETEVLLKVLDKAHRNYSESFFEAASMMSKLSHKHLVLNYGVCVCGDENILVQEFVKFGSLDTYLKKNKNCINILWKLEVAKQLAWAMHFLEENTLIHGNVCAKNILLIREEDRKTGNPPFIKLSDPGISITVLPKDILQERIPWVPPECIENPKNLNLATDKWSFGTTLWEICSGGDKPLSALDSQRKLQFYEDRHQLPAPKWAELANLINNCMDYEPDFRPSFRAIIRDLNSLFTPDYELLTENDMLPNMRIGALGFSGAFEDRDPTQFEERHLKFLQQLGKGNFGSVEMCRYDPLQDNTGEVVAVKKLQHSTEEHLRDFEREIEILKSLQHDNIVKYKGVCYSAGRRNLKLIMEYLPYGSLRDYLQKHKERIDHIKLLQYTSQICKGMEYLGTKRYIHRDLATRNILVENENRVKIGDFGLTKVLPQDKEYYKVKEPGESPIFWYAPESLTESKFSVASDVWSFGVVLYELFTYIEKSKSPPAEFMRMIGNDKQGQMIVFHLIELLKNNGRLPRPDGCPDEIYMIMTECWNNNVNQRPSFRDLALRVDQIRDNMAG
Method in brief: as §1

TYK2 = biological target: T4, TYK2 (Homo sapiens, UniProt P29597); assay: Inhibition of TYK2 kinase, LANCE Ultra TR-FRET assay; format: biochemical; conditions: 4 nM TYK2, 2x ATP 30 μM, 15 min pre-incubation, 90 min reaction, 23° C., read-out: tyk IC50
T4 construct: purchased Invitrogen PR8440C
T4 sequence (P29597 whole entry): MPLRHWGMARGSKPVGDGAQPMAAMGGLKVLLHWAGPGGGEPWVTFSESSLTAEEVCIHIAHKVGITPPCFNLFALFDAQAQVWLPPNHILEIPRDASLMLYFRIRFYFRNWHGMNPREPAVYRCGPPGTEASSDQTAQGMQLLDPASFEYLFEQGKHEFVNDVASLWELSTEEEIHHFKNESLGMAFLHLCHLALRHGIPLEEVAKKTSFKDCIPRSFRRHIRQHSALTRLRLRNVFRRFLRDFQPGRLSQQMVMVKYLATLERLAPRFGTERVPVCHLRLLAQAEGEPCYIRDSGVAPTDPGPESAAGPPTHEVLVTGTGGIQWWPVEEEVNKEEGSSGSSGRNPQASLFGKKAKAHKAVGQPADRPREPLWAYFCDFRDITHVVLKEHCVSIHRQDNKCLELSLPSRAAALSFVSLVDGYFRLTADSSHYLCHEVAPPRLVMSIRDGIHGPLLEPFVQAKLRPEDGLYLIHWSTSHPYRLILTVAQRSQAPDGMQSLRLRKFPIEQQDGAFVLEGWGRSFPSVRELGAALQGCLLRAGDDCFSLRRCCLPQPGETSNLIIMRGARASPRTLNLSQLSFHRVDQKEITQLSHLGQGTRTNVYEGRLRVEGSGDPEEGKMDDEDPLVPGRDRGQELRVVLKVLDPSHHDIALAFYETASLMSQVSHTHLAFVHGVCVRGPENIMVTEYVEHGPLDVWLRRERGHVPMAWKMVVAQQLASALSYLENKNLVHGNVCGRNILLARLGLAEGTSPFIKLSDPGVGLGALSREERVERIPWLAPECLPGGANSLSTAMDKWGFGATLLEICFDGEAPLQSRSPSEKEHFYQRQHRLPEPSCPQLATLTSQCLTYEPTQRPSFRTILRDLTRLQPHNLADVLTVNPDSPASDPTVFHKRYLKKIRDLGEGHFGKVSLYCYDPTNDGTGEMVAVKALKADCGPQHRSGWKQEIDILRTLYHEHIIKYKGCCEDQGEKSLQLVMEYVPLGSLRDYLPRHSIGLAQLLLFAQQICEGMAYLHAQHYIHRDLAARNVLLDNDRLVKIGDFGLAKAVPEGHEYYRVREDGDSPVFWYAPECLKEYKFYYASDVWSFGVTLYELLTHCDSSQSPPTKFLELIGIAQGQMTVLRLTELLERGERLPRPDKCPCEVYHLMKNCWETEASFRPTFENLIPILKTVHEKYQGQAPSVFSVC
Method in brief: as §1

Row | SMILES | IC50 (Hut-78 cells) [µM] | IC50 (JAK3) [µM] | IC50 (JAK1) [µM] | IC50 (JAK2) [µM] | IC50 (TYK2) [µM]
1 | O=C(NC1CC1C(F)(F)F)c1noc2c1CN(c1ncnc3[nH]ccc13)CC2 (stereo not drawn) [Compound 182] | < 0.5 | < 0.1 | < 0.1 | 0.1 to 0.5 | 0.5 to 2
2 | O=C(NC1CC(O)(C(F)(F)F)C1)c1noc2c1CN(c1ncnc3[nH]ccc13)CC2 (stereo not drawn) [Compound 201] | < 0.5 | < 0.1 | < 0.1 | 0.1 to 0.5 | > 2
3 | O=C(NC(CO)CC(F)(F)F)c1noc2c1CN(c1ncnc3[nH]ccc13)CC2 (stereo not drawn) [Compound 186] | < 0.5 | < 0.1 | < 0.1 | < 0.1 | 0.1 to 0.5
4 | O=C(NCC1CC(F)(F)C1)c1noc2c1CN(c1ncnc3[nH]ccc13)CC2 [Compound 198] | < 0.5 | < 0.1 | < 0.1 | 0.1 to 0.5 | > 2
5 | O=C(NCCC(F)(F)F)c1nn(Cc2ccncc2)c2c1CN(c1ncnc3[nH]ccc13)CC2 [Compound 105] | 0.5 to 1 | < 0.1 | 0.1 to 0.5 | 0.1 to 0.5 | > 2
6 | O=C(NCCC(F)(F)F)c1noc2c1CN(c1ncnc3[nH]ccc13)CC21CC1 [Compound 192] | 0.5 to 1 | < 0.1 | < 0.1 | 0.1 to 0.5 | > 2
